We go through eight compounds from patent publication US20240148821A1, “PHARMACEUTICAL USE OF CYCLIC PEPTIDE COMPOUND” (CHUGAI SEIYAKU KABUSHIKI KAISHA, priority 2021, published 2024).

As usually defined, the IC50 is the concentration needed to halve the response being measured.

Numbered stars: 1 amine (or outer) side, 2 acyl side, 3 side chain; on linkers, the order of the positions; unused ones are H or OH. Bridge positions count the residues as written; N and C are the ends. Square brackets hold non-standard residues; d marks the D form. Peptide text beside a SMILES is read from it. * marks the point of attachment. hPhe(3,5-F2-4-CF3) = N[C@@H](CCc1cc(F)c(C(F)(F)F)c(F)c1)C(=O)O; hPhe(3-Cl-4-CF3) = N[C@@H](CCc1ccc(C(F)(F)F)c(Cl)c1)C(=O)O; hPhe(3-F,4-CF3) = N[C@@H](CCc1ccc(C(F)(F)F)c(F)c1)C(=O)O; NMePhe(4-CF3) = CN[C@@H](Cc1ccc(C(F)(F)F)cc1)C(=O)O; NMePhe(4-Cl) = CN[C@@H](Cc1ccc(Cl)cc1)C(=O)O; X5 = CCN([C@@H](CC1CCCCC1)C(=O)[*:2])[*:1]; hPhe(4-Cl) = N[C@@H](CCc1ccc(Cl)cc1)C(=O)O; NMedβ3hAla = C[C@H](CC(=O)[*:2])N(C)[*:1]; NMeAla(cPent) = CN[C@@H](CC1CCCC1)C(=O)O; Pro(4,4-F2) = O=C(O)[C@@H]1CC(F)(F)CN1; NMe4Pal = CN[C@@H](Cc1ccncc1)C(=O)O; NMeCha = CN[C@@H](CC1CCCCC1)C(=O)O; NMeChg = CN[C@H](C(=O)O)C1CCCCC1; N(CH2CH2)2CF2 = FC1(F)CCN(*)CC1; NMeD = CN[C@@H](CC(=O)O)C(=O)O; NMeL = CN[C@@H](CC(C)C)C(=O)O; NMeAc5c = CNC1(C(=O)O)CCCC1; NMeV = CN[C@H](C(=O)O)C(C)C; d(β3hA) = C[C@@H](N)CC(=O)O; NMeA = CN[C@@H](C)C(=O)O; Piperidide = C1CCN(*)CC1; Ac5c = NC1(C(=O)O)CCCC1; Aze = O=C(O)[C@@H]1CCN1; Ac4c = NC1(C(=O)O)CCC1; Aib = CC(C)(N)C(=O)O; Sar = CNCC(=O)O

In this assay the target is protein-protein interaction between Kras and SOS1 (biotin-tagged human Kras loaded with GDP, His-tagged human SOS1) (Homo sapiens (Human), UniProt P01116, G12D). Kind of assay: Protein-protein interaction inhibition between Kras and SOS1 (KrasG12D-SOS PPI) using AlphaScreen.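 Also: kras produced in E. coli, Ni-coupled donor beads and streptavidin acceptor beads, excitation 680 nm with emission detected at 520–620 nm via singlet oxygen transfer.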 It is filed as biochemical. The settings on record: AlphaScreen; biotin-tagged human Kras loaded with GDP, His-tagged human SOS1; read-out: KRAS G12D-SOS PPI IC50. In general terms: In Alpha technology, singlet oxygen from a donor bead excites a nearby acceptor bead.
Turning to `CC[C@H](C)[C@@H]1NC(=O)[C@H](CC(C)C)N(C)C(=O)C[C@@H](C)N(C)C(=O)[C@H](CC(C)C)NC(=O)C2(CCCC2)N(C)C(=O)[C@H](CC(C)C)NC(=O)[C@H](CCc2ccc(C(F)(F)F)c(F)c2)NC(=O)CN(C)C(=O)[C@H](CC2CCCCC2)N(C)C(=O)CN(C)C(=O)CN(C)C1=O` [Compound 2] (cyclo(I[Sar][Sar][NMeCha][Sar][hPhe(3-F,4-CF3)]L[NMeAc5c]L[NMedβ3hAla][NMeL])), the 50% inhibitory concentration (IC50) is 15 nM.

Turning to `CC[C@H](C)[C@@H]1NC(=O)[C@H](CC(C)C)N(C)C(=O)C[C@@H](C(=O)N2CCCCC2)NC(=O)[C@H](C(C)C)N(C)C(=O)C2(CCCC2)NC(=O)[C@H](CC(=O)N2CCC(F)(F)CC2)N(C)C(=O)[C@H](CCc2ccc(C(F)(F)F)c(Cl)c2)NC(=O)CN(C)C(=O)[C@H](CC2CCCCC2)N(C)C(=O)CN(C)C(=O)CN(C)C1=O` [Compound 3] ([NMeL]I[Sar][Sar][NMeCha][Sar][hPhe(3-Cl-4-CF3)][NMeD](N(CH2CH2)2CF2)[Ac5c][NMeV]D-Piperidide; lactam N-11), the half-maximal inhibitory concentration (IC50) worked out at 310 nM. To `CC[C@H](C)[C@@H]1NC(=O)[C@H](CC2CCCC2)N(C)C(=O)C[C@@H](C)NC(=O)[C@H](C(C)C)N(C)C(=O)C2(CCCC2)NC(=O)[C@@H]2CCCN2C(=O)[C@H](CCc2ccc(C(F)(F)F)c(Cl)c2)NC(=O)CN(C)C(=O)[C@H](CC2CCCCC2)N(C)C(=O)[C@@H]2CCN2C(=O)[C@H](C)N(C)C1=O` [Compound 8] (cyclo([Ac5c][NMeV][d(β3hA)][NMeAla(cPent)]I[NMeA][Aze][NMeCha][Sar][hPhe(3-Cl-4-CF3)]P)) belongs 75 nM; to `CC[C@H](C)[C@@H]1NC(=O)[C@H](C)N(C)C(=O)C[C@@H](C)NC(=O)[C@H](CC(C)C)N(C)C(=O)C(C)(C)NC(=O)[C@H](CC(C)C)N(C)C(=O)[C@H](CCc2ccc(Cl)cc2)NC(=O)CN(C)C(=O)[C@H](Cc2ccc(Cl)cc2)N(C)C(=O)CN(C)C(=O)CN(C)C1=O` [Compound 19] (cyclo([Aib][NMeL][d(β3hA)][NMeA]I[Sar][Sar][NMePhe(4-Cl)][Sar][hPhe(4-Cl)][NMeL])), 50 nM; to `CC[C@H](C)[C@@H]1NC(=O)[C@H](CC(C)C)N(C)C(=O)C[C@@H](C(=O)N2CCCCC2)N(C)C(=O)[C@H](C(C)C)N(C)C(=O)C2(CCCC2)NC(=O)[C@@H]2CCCN2C(=O)[C@H](CCc2ccc(C(F)(F)F)c(Cl)c2)NC(=O)CN(C)C(=O)[C@H](CC2CCCCC2)N(CC)C(=O)[C@@H]2CCN2C(=O)[C@H](C)N(C)C1=O` [Compound 23] ([NMeL]I[NMeA][Aze][X5][Sar][hPhe(3-Cl-4-CF3)]P[Ac5c][NMeV][NMeD]-Piperidide; lactam N-11), 2.7 nM. Consider `CC[C@H](C)[C@@H]1NC(=O)[C@H](CC(C)C)N(C)C(=O)C[C@@H](C)N(C)C(=O)[C@H](C2CCCCC2)N(C)C(=O)C2(CCC2)NC(=O)[C@@H]2CC(F)(F)CN2C(=O)[C@H](CCc2cc(F)c(C(F)(F)F)c(F)c2)NC(=O)CN(C)C(=O)[C@H](Cc2ccc(C(F)(F)F)cc2)N(C)C(=O)[C@@H]2CCN2C(=O)[C@H](C)N(C)C1=O` [Compound 34] (cyclo([Ac4c][NMeChg][NMedβ3hAla][NMeL]I[NMeA][Aze][NMePhe(4-CF3)][Sar][hPhe(3,5-F2-4-CF3)][Pro(4,4-F2)])), for which the concentration for half-maximal inhibition (IC50) amounted to 74 nM. Take `CC[C@H](C)[C@@H]1NC(=O)[C@H](CC(C)C)N(C)C(=O)C[C@@H](C(=O)N2CCCCC2)N(C)C(=O)[C@H](C2CCCCC2)N(C)C(=O)C2(CCCC2)NC(=O)[C@H](Cc2ccncc2)N(C)C(=O)[C@H](CCc2ccc(C(F)(F)F)c(Cl)c2)NC(=O)CN(C)C(=O)[C@H](CC2CCCCC2)N(C)C(=O)CN(C)C(=O)CN(C)C1=O` [Compound 36] ([NMeL]I[Sar][Sar][NMeCha][Sar][hPhe(3-Cl-4-CF3)][NMe4Pal][Ac5c][NMeChg][NMeD]-Piperidide; lactam N-11): the IC50 stood at 4.7 nM. On to `CC[C@H](C)[C@@H]1NC(=O)[C@H](CC2CCCC2)N(C)C(=O)C[C@@H](C(=O)N2CCCCC2)N(C)C(=O)[C@H](C(C)C)N(C)C(=O)C2(CCCC2)NC(=O)[C@@H]2CCCN2C(=O)[C@H](CCc2ccc(C(F)(F)F)c(Cl)c2)NC(=O)CN(C)C(=O)[C@H](CC2CCCCC2)N(C)C(=O)[C@@H]2CCN2C(=O)[C@H](C)N(C)C1=O` [Compound 37] ([NMeAla(cPent)]I[NMeA][Aze][NMeCha][Sar][hPhe(3-Cl-4-CF3)]P[Ac5c][NMeV][NMeD]-Piperidide; lactam N-11), for which the half-maximal inhibitory concentration (IC50) worked out at 17 nM.
